From patent US11878972B2, “Treatment of neurological disorders” (TORQUR AG, priority 2016, dated 2024)
Entries after “also recorded” stand apart in the source; their conditions may differ. Where two headings read alike, the source gives them in different places.

How the values were obtained:
[1] = test system: mTOR signaling (S6rP and 4E-BP phosphorylation) in STHdh^Q7/Q7 and STHdh^Q111/Q111 cells; experiment: mTOR signaling in STHdh cells (western blot); format: cell-based, mouse; conditions: 4 hours
Experimental: 8 inhibit mTOR signaling and induce autophagy in neuronal cell models of HD, treatment of STHdh^Q111/Q111 and STHdh^Q7/Q7 cells was employed. […] Cells were seeded in 10 cm dishes. When cells were about 80% confluent, cells were differentiated and treated with compounds at the same time. […] At the end of incubation time cells were washed with cold PBS buffer and lysed with 200 μl of RIPA buffer supplemented with 4% Complete protease inhibitor (Roche, Switzerland) and 10% PhosStop (Roche, Switzerland). After 30 min of incubation on ice, lysates were vortexed, centrifuged (20 min, 4° C., 16000 rpm) and supernatants were collected. […] 30 μg of protein per sample was analyzed by western blot as described above using the following primary antibodies:

[2] = Maximal tolerated dose (MTD) / tolerability in BALB/c nude mice; format: in vivo; conditions: for MTD: female, BALB/c nude, mouse, in vivo, po
Experimental: In order to find a dose that could be used for further experiments and in order to show tolerability of compounds of the present invention, female BALB/c nude mice were treated with Cpd. 3 and Cpd. 8 by per oral (p.o.) gavage twice for five days with a two day dose holiday in between. Compounds were administered in the following vehicle: 20% Hydroxypropyl-β-cyclodextrin (HPBCD), 10% DMSO and 70% water. The major endpoint was to evaluate the body weight loss and animal survival. The body weights were recorded daily for the dosing days and at least twice weekly thereafter. The animal death was checked daily for survival. Animals were to be evaluated for 7 days post the final dose. The tolerated dose was defined as the dose that results in less than 20% mean body-weight loss, and no treatment related death during the study. The randomized block design was used to assign experimental animals to groups. First, the experimental animals were divided into homogeneous blocks according to their initial body weight. Secondly, within each block, randomization of experimental animals to treatments was conducted.
Animal supplier: Shanghai Lingchang Bio-Technology Co. Ltd (LC, Shanghai, China). Animal Certificate No.: 2013001803305. The mice were kept in individual ventilated cage (IVC) systems at constant temperature and humidity with 5 animals in each cage.
Diet: Mouse diet, C060 irradiation sterilized dry granule food. Animals had free access during the entire study period. Water: RO water, autoclaved before using. Animals had free access to sterile drinking water.
OVCAR-3 and SUDHL/6 tumor bearing BALB/c nude mice were treated with Cpd. 3, p.o. at 100 mg/kg for 21 or 15 consecutive days, respectively under the same conditions. Body weight of the mice was stable.

[3] = R6/2 pharmacokinetics (plasma, striatum, cerebellum, cortex); format: in vivo, mouse; conditions: R6/2 mice, single oral dose, one hour; Cpd. 3 75, 50, 25 mg/kg; Cpd. 8 25, 16, 8 mg/kg
Experimental: In order to test exposure of brain areas, R6/2 mice were treated with a single oral dose of Cpd. 3 (75 mg/kg, 50 mg/kg, 25 mg/kg) or Cpd. 8 (25 mg/kg, 16 mg/kg, 8 mg/kg), 3 animals per group. After one hour plasma was collected and animals were sacrificed. Striatum, cerebellum and cortex was separately snap frozen and analyzed for compound concentration using LC/MS/MS.

[4] = test system: STHdh^Q7/Q7 and STHdh^Q111/Q111 cells; experiment: PrestoBlue assay (cell viability/metabolic activity); format: cell-based, mouse; conditions: for metabolic activity (PrestoBlue) at 72 hours: 1230 nM, STHdh^Q111/Q111; for mitochondrial activity: at lower concentration
Experimental: Cell viability/metabolic activity was detected using the PrestoBlue viability reagent (Invitrogen, USA) according to the manufacturer's instructions. […] 3 (130 nM, 1230 nM), Cpd. […] Non-toxic concentrations determined were transferred to primary neurons used later on in this study. […] At lower concentration of Cpd. 3 and Cpd. […] 8 in STHdh^Q111/Q111. […] Wild type cells are less sensitive to mTOR inhibition and 2.

[5] = test system: STHdh^Q7/Q7 and STHdh^Q111/Q111 cells; experiment: LDH assay (cytotoxicity); conditions: for LDH activity compared to control: at higher concentrations; for LDH production: time points between 24 h and 48 h
Experimental: Cytotoxicity of test compounds was measured using the lactate dehydrogenase (LDH) assay from Roche, Switzerland according to the manufacturer's instructions.
STHdh^Q111/Q111 and STHdh^Q7/Q7 (Coriell Institute for Medical Research, USA) were cultured in DMEM (Invitrogen, USA) supplemented with FBS (Invitrogen, USA) 10%, Geniticine (G418, Biochrom, Germany)) 1% und antibiotic antimycotic (Invitrogen, USA) 1% in a humidified incubator at 37° C. and 5% CO2. […] 10^4 STHdh^Q7/Q7 and STHdh^Q111/Q111 cells per well were seeded in a 96 well plate incubated with Cpd.

[6] = test system: 51Q-HTT-Exon1-eGFP transfected HEK cells; experiment: Immune cytochemistry, count of mutHTT aggregates; format: cell-based, human; conditions: Cpd. 8 130 nM, Cpd. 3 400 nM
Experimental: HEK cells were transiently transfected with pcDNA3.1/V5-His vector from Clontech (Mountain View, USA) containing the expression sequence for Exon1 of HTT with a 19Q (no aggregation) or 51Q extension and enhanced green fluorescence protein (eGFP) tag using Attractene Transfection Reagent (Qiagen, Netherlands). 1×10^6 cells were seeded in a 6 well plate. On the next day 2 μg DNA were mixed with 95.5 μl transfection media and 4.5 μl transfection reagent. After an incubation time of 15 min the mixture was added to the cells. After 72 hours cells were harvested or fixed for analysis.
HEK cells were seeded in poly-L-lysine (Sigma-Aldrich, USA) coated coverslips in 24 well plates at 10^4 cells per well and transiently transfected with 19Q- or 51Q-HTT-Exon1-eGFP. Cells were treated with Compounds as described under A for 8 or 24 hours. This incubation ended 72 hours after transfection. Cells were fixed with 4% (para-formaldehyde) PFA. Coverslips were fixed glass slides using mounting media that contained 4′,6-Diamidin-2-phenylindol (DAPI) (FIG. 7C). Nuclei and aggregates containing HTT-Exon1-eGFP were counted manually. 10 000 cells were counted per sample (FIG. 7D).

pPKB S473 in A2058 cells = experiment: In-cell Western blot, pPKB S473; format: cell-based; conditions: Homo sapiens, treated for 1 hour, normalized to α-tubulin
Experimental: Cells are fixed with 4% paraformaldehyde for 30 minutes at room temperature, washed 2 times with 1% BSA in PBS, permeabilized with 0.1% Triton X-100 in PBS/1% BSA for 30 minutes at room temperature and blocked with 5% goat serum in PBS/1% BSA/0.1% Triton X-100 for 30 minutes at room temperature. […] Cells are washed 3 times 5 minutes with PBS/1% BSA/0.1% triton and plate scanned with the Odyssey Infrared Scanning system using both 700 and 800 nm channels. […] To correct for background staining in the data analysis wells are treated only with secondary antibodies.
For data analysis the mean background signal from channel 700 nm and 800 nm are subtracted from each signal in channel 700 nm and 800 nm, respectively.
IC50 values of each compound are determined by plotting the normalized pPBK S473 and pS6 S235/S236 signals, respectively, versus the compound concentrations (in logarithmic scale) and then by fitting a sigmoidal dose-response curve with variable slope to the data using GraphPad™ Prism.

[7] = test system: LC3-II in STHdh^Q7/Q7 and STHdh^Q111/Q111 cells; experiment: Induction of autophagy in STHdh cells (LC3-II, western blot); format: cell-based, mouse; conditions: striatal cells, 4 hours, presence and absence of Bafilomycin A
Experimental: In order to test whether Cpd. 3 and Cpd. 8 inhibit mTOR signaling and induce autophagy in neuronal cell models of HD, treatment of STHdh^Q111/Q111 and STHdh^Q7/Q7 cells was employed. […] Cells were seeded in 10 cm dishes. When cells were about 80% confluent, cells were differentiated and treated with compounds at the same time. Cells were treated with Cpd. 3 (200 nM, 400 nM, 1230 nM), Cpd. […] At the end of incubation time cells were washed with cold PBS buffer and lysed with 200 μl of RIPA buffer supplemented with 4% Complete protease inhibitor (Roche, Switzerland) and 10% PhosStop (Roche, Switzerland). After 30 min of incubation on ice, lysates were vortexed, centrifuged (20 min, 4° C., 16000 rpm) and supernatants were collected. Protein concentration was determined as described above. 30 μg of protein per sample was analyzed by western blot as described above using the following primary antibodies:
In order to detect levels of LC3-II, an autophagy marker in autophagosomes, cell treatment was performed in the presence and absence of Bafilomycin A, an inhibitor of autophagosome degradation. Thus compounds lead to accumulation of LC3-II levels when autophagy is induced. Cpd. 3 (FIG. 6C) and Cpd. […] For Cpd. […] Cpd.

Tsc1GFAP knockout mice = experiment: Electrographic seizures in Tsc1 GFAP conditional knockout mice
Experimental: Tsc1 mice belonging to either sex were acclimated to the environment, examined, handled, and weighed prior to initiation of the study to assure adequate health and suitability and to minimize non-specific stress associated with human handling. During the course of the study, 12/12 light/dark cycles were maintained. The room temperature was maintained between 20 and 23° C. with a relative humidity maintained around 50%. Food and water were provided ad libitum for the duration of the study. Each mouse was randomly assigned to designated treatment groups. The dosing was performed during the animals' light cycle phase.
Aseptic technique was used throughout the surgical procedures described below. […] Adequate plane of anesthesia was insured by the lack of a withdrawal response to toe pinch and a visible change in the breathing rate. The mouse head was immobilized in a stereotaxic frame with a nose piece that supplied the anesthetic continuously. Ophthalmic ointment was applied to the eyes to prevent drying of the cornea. […]
EEG was recorded using 10× or 100× gain pre-amplifiers. […]
Simultaneously, videographic recording was made through this period to provide a data stream for behavioral evaluation of the mice as needed. After the recording period was completed, individual EEG traces were evaluated for aberrant EEG activity. […]

## C[C@H]1COCCN1c1nc(-c2cnc(N)cc2C(F)F)nc(N2CCOCC2)n1 [Compound 8, (S)-4-(difluoromethyl)-5-(4-(3-methylmorpholino)-6-morpholino-1,3,5-triazin-2-yl)pyridin-2-amine]
[1]; STHdh^Q7/Q7 cells
  low concentration at which an effect on mTOR signaling could already be observed: 130 nM
[2]
  MTD: 25 mg/kg
[3]
  Tissue concentrations reached: sufficient levels were reached at all concentrations
[4]
  metabolic activity (PrestoBlue) at 72 hours: not significantly
  mitochondrial activity: slight increase in mitochondrial activity
[5]
  LDH activity compared to control: decreased compared to control
  LDH production: reduced LDH production
[6]; 8 hours of treatment
  reduction of number of mutHTT aggregates: 55%
[6]; 24 hours of treatment
  reduction of number of mutHTT aggregates: 77%
pPKB S473 in A2058 cells
  IC50: 74 nM

## Nc1cc(C(F)F)c(-c2nc(N3C4CCC3COC4)nc(N3C4CCC3COC4)n2)cn1 [Compound 3, 5-(4-(3-oxa-8-azabicyclo[3.2.1]octan-8-yl)-6-(3-oxa-8-azabicyclo[3.2.1]octan-8-yl)-1,3,5-triazin-2-yl)-4-(difluoromethyl)pyridin-2-amine]
[1]; Cpd. 3 200, 400, 1230 nM, Cpd. 8 130, 1230 nM, INK128 100 nM, rapamycin 400 nM
  mTOR signaling (S6rP phosphorylation and 4E-BP phosphorylation): reduced S6rP phosphorylation and 4E-BP phosphorylation
[2]; OVCAR-3 and SUDHL/6 tumor bearing BALB/c nude mice, p.o. 100 mg/kg for 21 or 15 consecutive days
  Body weight of the mice: stable
[2]; BALB/c mice, p.o., twice for five days with a two day dose holiday, read-out: MTD
  MTD: 100 mg/kg
[7]
  autophagy (LC3-II levels): induced autophagy in striatal cells
[3]
  Tissue concentrations reached: well in the efficacious range
[4]
  metabolic activity (PrestoBlue) at 72 hours: slight inhibition; also recorded: decreased metabolic activity
  mitochondrial activity: slight increase in mitochondrial activity
Tsc1GFAP knockout mice; TSC1 GFAP mice, during treatment
  Body weight: higher towards the end of the study
Tsc1GFAP knockout mice; Tsc1 GFAP mice, chronic treatment
  effect on spontaneous electrographic seizures: strongly reduce spontaneous seizures
[5]
  LDH activity compared to control: decreased compared to control
  LDH production: reduced LDH production
[6]; 8 hours of treatment
  reduction of number of mutHTT aggregates: 66%
[6]; 24 hours of treatment
  reduction of number of mutHTT aggregates: 73%
